Measurements from PubChem BioAssay (NCI).
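Briefly, cells in 96-well plates were exposed to five compound concentrations for 48 h, and endpoints were estimated by linear interpolation. The concentration for 50% growth inhibition is given as GI50. Definition used: TGI = concentration required for complete inhibition of growth.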 Where a SMILES comes first, the peptide text is derived from it. [ ]: non-standard residue; d: D form. NMeY = CN[C@@H](Cc1ccc(O)cc1)C(=O)O; dNMeF = CN[C@H](Cc1ccccc1)C(=O)O; Sar = CNCC(=O)O

Assays:
Experiment in all cases: inhibition of tumour cell growth, NCI panel, 48 h
[1] = system: HOP-62 NSCLC
[2] = system: RPMI-8226 leukemia
[3] = system: MOLT-4 leukemia
[4] = system: HT29 colon
[5] = system: CAKI-1 renal
[6] = system: SR leukemia
[7] = system: OVCAR-4 ovarian
[8] = system: LOX IMVI melanoma
[9] = system: UACC-257 melanoma
[10] = system: HL-60(TB) leukemia

Compound: CC[C@H](C)[C@@H]1NC(=O)[C@H](Cc2ccc(O)cc2)N(C)C(=O)[C@H](Cc2ccccc2)NC(=O)CN(C)C(=O)[C@@H]2CCCN2C(=O)[C@@H](Cc2ccccc2)N(C)C(=O)[C@H](CC(C)C)NC1=O (cyclo(F[NMeY]IL[dNMeF]P[Sar]))
- GI50 [1]: 0.296 µM
- TGI [1]: 5.84 µM
- GI50 [2]: 0.229 µM
- TGI [2]: 1.2 µM
- GI50 [3]: 0.314 µM
- TGI [3]: 10.6 µM
- GI50 [4]: 0.243 µM
- TGI [4]: 7.2 µM
- GI50 [5]: 0.805 µM
- TGI [5]: 11.3 µM
- GI50 [6]: 0.123 µM
- TGI [6]: 6.28 µM
- GI50 [7]: 0.306 µM
- TGI [7]: 3.99 µM
- GI50 [8]: 0.197 µM
- TGI [8]: 1.89 µM
- GI50 [9]: 0.267 µM
- TGI [9]: 3.05 µM
- GI50 [10]: 0.605 µM
- TGI [10]: 3.3 µM

Compound: C[C@H]1[C@H](C)CC[C@]2(C(=O)O)CC[C@]3(C)C(=CC[C@@H]4[C@@]5(C)CC[C@H](OC(=O)/C=C/c6ccc(O)cc6)C(C)(C)[C@@H]5CC[C@]43C)[C@H]12
- GI50 [1]: 3.63 µM
- TGI [1]: 7.03 µM
- GI50 [2]: 5.49 µM
- TGI [2]: 48.5 µM
- GI50 [3]: 4.42 µM
- TGI [3]: 49.7 µM
- GI50 [4]: 18.8 µM
- TGI [4]: > 100 µM
- GI50 [5]: 3.13 µM
- TGI [5]: 16.3 µM
- GI50 [6]: 3.77 µM
- TGI [6]: 24.2 µM
- GI50 [7]: 9.42 µM
- TGI [7]: 38.1 µM
- GI50 [8]: 4.73 µM
- TGI [8]: 16.6 µM
- GI50 [9]: 12.1 µM
- TGI [9]: 51.5 µM
- GI50 [10]: 6.53 µM
- TGI [10]: 34.3 µM

Compound: CN(C)CCNC(=O)Cn1ccc(=O)c2ccc([N+](=O)[O-])cc21
- TGI [1]: > 100 µM
- TGI [2]: > 100 µM
- TGI [3]: > 100 µM
- TGI [4]: > 100 µM
- TGI [5]: > 100 µM
- TGI [6]: > 100 µM
- TGI [7]: > 100 µM
- TGI [8]: > 100 µM
- TGI [9]: > 100 µM
- TGI [10]: > 100 µM

Compound: Nc1c(C(=O)c2cccc(CCC3(O)CCCC3)c2)cnn1-c1ccc(F)cc1
- GI50 [1]: > 25 µM
- TGI [1]: > 25 µM
- GI50 [2]: 9.23 µM
- TGI [2]: > 25 µM
- GI50 [3]: 10.2 µM
- TGI [3]: > 25 µM
- GI50 [4]: 18.2 µM
- TGI [4]: > 25 µM
- GI50 [5]: > 25 µM
- TGI [5]: > 25 µM
- GI50 [6]: 13.6 µM
- TGI [6]: > 25 µM
- GI50 [7]: 8.71 µM
- TGI [7]: > 25 µM
- GI50 [8]: > 25 µM
- TGI [8]: > 25 µM
- GI50 [9]: 10 µM
- TGI [9]: > 25 µM
- GI50 [10]: 16.2 µM
- TGI [10]: > 25 µM

Compound: O=c1oc2ccc(Cl)cc2c(=O)n1-c1cc(C(F)(F)F)cc(C(F)(F)F)c1
- GI50 [1]: 0.352 µM
- TGI [1]: 4.36 µM
- GI50 [2]: 0.188 µM
- TGI [2]: 0.712 µM
- GI50 [3]: 0.352 µM
- TGI [3]: 2.48 µM
- GI50 [4]: 2.12 µM
- TGI [4]: 14.6 µM
- GI50 [5]: 0.198 µM
- TGI [5]: 0.689 µM
- GI50 [6]: 0.308 µM
- TGI [6]: > 51 µM
- GI50 [7]: 0.292 µM
- TGI [7]: 29.2 µM
- GI50 [8]: 0.366 µM
- TGI [8]: 2.33 µM
- GI50 [9]: 0.233 µM
- TGI [9]: 1.6 µM
- GI50 [10]: 0.231 µM
- TGI [10]: 0.553 µM

Compound: O=C(O)c1ccc(NCc2nc3cc4ccccc4cc3[nH]2)cc1
- TGI [1]: > 100 µM
- TGI [2]: > 100 µM
- TGI [3]: > 100 µM
- TGI [4]: > 100 µM
- TGI [5]: > 100 µM
- TGI [6]: > 100 µM
- TGI [7]: > 100 µM
- TGI [8]: > 100 µM
- TGI [9]: 25.9 µM
- TGI [10]: > 54.8 µM

Compound: COc1cccc(-n2ncc3c(N/N=C/c4ccc(S(C)(=O)=O)cc4)ncnc32)c1
- GI50 [1]: 5.85 µM
- TGI [1]: 11.5 µM
- GI50 [2]: > 22.9 µM
- TGI [2]: > 25 µM
- GI50 [3]: > 25 µM
- TGI [3]: > 25 µM
- GI50 [4]: 3.49 µM
- TGI [4]: 10.5 µM
- GI50 [5]: 4.81 µM
- TGI [5]: > 25 µM
- GI50 [6]: > 12.4 µM
- TGI [6]: > 25 µM
- GI50 [7]: 13.1 µM
- TGI [7]: > 25 µM
- GI50 [8]: 2.34 µM
- TGI [8]: > 25 µM
- GI50 [9]: > 18 µM
- TGI [9]: > 25 µM
- GI50 [10]: > 25 µM
- TGI [10]: > 25 µM

Compound: Nc1ccn(C2CC(O)C(CO)O2)c(=O)n1 (stereo not given)
- GI50 [1]: > 5000 µM
- TGI [1]: > 5000 µM
- GI50 [2]: > 5000 µM
- TGI [2]: > 5000 µM
- GI50 [3]: > 5000 µM
- TGI [3]: > 5000 µM
- GI50 [4]: > 5000 µM
- TGI [4]: > 5000 µM
- GI50 [5]: > 5000 µM
- TGI [5]: > 5000 µM
- GI50 [6]: > 5000 µM
- TGI [6]: > 5000 µM
- GI50 [7]: > 5000 µM
- TGI [7]: > 5000 µM
- GI50 [8]: > 5000 µM
- TGI [8]: > 5000 µM
- GI50 [9]: > 5000 µM
- TGI [9]: > 5000 µM
- GI50 [10]: > 5000 µM
- TGI [10]: > 5000 µM

Compound: O=C(O)CCCCCO
- TGI [1]: > 100 µM
- TGI [2]: > 100 µM
- TGI [3]: > 100 µM
- TGI [4]: > 100 µM
- TGI [5]: > 100 µM
- TGI [6]: > 100 µM
- TGI [7]: > 100 µM
- TGI [8]: > 100 µM
- TGI [9]: > 100 µM
- TGI [10]: > 100 µM

Compound: O=C(O)CCCSc1nc2ccccc2s1
- TGI [1]: > 100 µM
- TGI [2]: > 100 µM
- TGI [3]: > 100 µM
- TGI [4]: > 100 µM
- TGI [5]: > 100 µM
- TGI [6]: > 100 µM
- TGI [7]: > 100 µM
- TGI [8]: > 100 µM
- TGI [9]: > 100 µM
- TGI [10]: > 100 µM
